Where a name gives a salt, the structure may show the parent alone.
Legend:
[1] = target: PI3Kδ (p110δ/p85α) Recombinant Human Protein (Homo sapiens (Human), UniProt O00329); test: PI3Kδ Scintillation Proximity Assay; type: biochemical; details: read-out: PI3K-delta SPA IC50
In short: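 Recombinant human p110δ/p85α (3.4 nM) with 20 μM PIP2 and 2 μM ATP plus [γ-33P]ATP, in 20 mM MOPS pH 6.7, 10 mM MgCl2, 5 mM DTT, 0.03% CHAPS, 2% DMSO; 120 min at room temperature. Product captured on WGA SPA beads, scintillation counted; IC50 from percent-of-control curves.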

[2] = target: PI3Kγ (p110γ) Recombinant Human Protein (Homo sapiens (Human), UniProt P48736); test: PI3K-γ Scintillation Proximity Assay; type: biochemical; details: read-out: PI3K-gamma SPA IC50
In short: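 Recombinant human p110γ (13 nM) with 20 μM PIP2 and 2 μM ATP plus 0.5 μCi [γ-33P]ATP in 20 mM MOPS pH 6.7, 10 mM MgCl2, 5 mM DTT, 0.03% CHAPS, 2% DMSO, 120 min at room temperature. Product captured on WGA SPA beads and counted; IC50 fitted from % of solvent control versus log concentration.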

Chain of PI3Kδ (p110δ/p85α) Recombinant Human Protein (O00329 whole entry): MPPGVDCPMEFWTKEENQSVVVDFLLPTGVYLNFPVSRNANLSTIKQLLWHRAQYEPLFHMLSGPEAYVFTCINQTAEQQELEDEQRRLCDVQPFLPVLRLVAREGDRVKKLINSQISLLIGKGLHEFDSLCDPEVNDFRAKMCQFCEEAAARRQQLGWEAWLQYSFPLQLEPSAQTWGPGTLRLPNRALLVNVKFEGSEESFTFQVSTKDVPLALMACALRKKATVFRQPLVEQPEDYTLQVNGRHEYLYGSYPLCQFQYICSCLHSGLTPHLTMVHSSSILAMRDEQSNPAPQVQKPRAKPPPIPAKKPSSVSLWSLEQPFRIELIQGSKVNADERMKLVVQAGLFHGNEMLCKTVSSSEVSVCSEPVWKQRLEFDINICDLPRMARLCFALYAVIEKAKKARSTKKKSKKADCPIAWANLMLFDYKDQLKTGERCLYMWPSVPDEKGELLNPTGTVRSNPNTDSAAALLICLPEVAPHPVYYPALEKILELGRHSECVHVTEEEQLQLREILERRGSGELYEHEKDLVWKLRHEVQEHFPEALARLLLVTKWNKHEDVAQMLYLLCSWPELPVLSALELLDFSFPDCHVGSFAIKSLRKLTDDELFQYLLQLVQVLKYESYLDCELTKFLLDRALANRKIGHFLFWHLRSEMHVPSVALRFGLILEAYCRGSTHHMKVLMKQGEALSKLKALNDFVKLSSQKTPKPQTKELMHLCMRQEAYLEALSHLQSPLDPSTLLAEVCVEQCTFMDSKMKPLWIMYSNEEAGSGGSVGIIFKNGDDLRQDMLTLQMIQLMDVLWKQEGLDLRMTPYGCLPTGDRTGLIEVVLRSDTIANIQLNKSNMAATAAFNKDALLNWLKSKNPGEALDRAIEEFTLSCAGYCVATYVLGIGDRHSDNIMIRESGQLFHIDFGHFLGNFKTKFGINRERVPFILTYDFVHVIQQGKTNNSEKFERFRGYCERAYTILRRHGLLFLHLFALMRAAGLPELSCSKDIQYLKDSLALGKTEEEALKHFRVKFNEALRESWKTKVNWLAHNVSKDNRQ
Chain of PI3Kδ (p110δ/p85α) Recombinant Human Protein (P27986 whole entry partner): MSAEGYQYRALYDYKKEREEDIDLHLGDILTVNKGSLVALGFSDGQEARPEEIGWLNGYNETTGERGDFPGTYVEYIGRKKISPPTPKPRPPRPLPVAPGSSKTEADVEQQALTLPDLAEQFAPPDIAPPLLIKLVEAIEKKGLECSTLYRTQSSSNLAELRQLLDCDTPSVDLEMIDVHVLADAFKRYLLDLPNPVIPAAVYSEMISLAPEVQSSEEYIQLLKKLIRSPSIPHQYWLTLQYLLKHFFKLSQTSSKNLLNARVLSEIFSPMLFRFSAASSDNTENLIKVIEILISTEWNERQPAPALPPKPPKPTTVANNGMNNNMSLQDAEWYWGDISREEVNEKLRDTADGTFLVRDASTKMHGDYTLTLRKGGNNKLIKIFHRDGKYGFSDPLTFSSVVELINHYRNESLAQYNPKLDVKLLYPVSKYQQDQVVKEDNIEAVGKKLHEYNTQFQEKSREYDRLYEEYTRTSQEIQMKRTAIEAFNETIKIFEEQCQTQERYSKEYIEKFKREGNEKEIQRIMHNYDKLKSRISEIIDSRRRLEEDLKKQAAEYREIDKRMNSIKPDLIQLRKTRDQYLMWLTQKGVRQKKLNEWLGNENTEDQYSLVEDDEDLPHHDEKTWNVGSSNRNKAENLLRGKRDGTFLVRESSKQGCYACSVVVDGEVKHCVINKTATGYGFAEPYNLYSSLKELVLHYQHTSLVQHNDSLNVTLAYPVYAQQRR
Chain of PI3Kγ (p110γ) Recombinant Human Protein (P48736 whole entry): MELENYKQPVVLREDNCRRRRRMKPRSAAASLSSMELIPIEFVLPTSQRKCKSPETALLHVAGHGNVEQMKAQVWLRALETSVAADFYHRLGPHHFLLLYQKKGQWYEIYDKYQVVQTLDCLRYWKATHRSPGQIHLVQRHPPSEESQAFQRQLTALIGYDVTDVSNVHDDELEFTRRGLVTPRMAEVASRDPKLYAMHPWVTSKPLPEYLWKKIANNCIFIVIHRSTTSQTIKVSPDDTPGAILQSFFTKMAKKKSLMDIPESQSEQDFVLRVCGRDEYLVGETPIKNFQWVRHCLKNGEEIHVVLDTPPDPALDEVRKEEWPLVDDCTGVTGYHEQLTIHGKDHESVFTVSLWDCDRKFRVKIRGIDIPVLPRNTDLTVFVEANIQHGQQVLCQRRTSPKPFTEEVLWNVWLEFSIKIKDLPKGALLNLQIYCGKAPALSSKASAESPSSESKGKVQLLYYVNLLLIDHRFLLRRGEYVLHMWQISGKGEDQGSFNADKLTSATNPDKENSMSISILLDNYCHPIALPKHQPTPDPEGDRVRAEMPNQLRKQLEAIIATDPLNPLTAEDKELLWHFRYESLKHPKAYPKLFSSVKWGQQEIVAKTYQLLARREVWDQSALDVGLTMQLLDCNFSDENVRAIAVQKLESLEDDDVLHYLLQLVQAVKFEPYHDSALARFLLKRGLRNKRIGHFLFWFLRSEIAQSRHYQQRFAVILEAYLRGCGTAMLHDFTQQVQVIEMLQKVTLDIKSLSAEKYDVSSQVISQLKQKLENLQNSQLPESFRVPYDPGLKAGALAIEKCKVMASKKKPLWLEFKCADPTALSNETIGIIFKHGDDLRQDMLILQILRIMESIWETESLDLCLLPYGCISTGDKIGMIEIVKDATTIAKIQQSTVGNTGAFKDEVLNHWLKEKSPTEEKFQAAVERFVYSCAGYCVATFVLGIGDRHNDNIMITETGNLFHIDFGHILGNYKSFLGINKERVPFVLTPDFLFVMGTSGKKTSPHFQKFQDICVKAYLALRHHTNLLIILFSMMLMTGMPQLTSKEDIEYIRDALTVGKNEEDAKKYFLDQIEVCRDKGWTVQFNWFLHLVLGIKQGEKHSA

Row | SMILES | IC50 [1] [µM] | IC50 [2] [µM]
1 | Cc1nc(-c2cc(-c3cncc(NCC4CCOCC4)c3)ccn2)[nH]c1C [Example 145, 2′-(4,5-Dimethyl-1H-imidazol-2-yl)-N-(tetrahydro-2H-pyran-4-ylmethyl)-3,4′-bipyridin-5-amine] | ≤ 0.5 | ≤ 0.05
2 | Cc1nc(-c2cc(-c3cncc(C(=O)N4CCN(C)CC4)c3)ccn2)[nH]c1C [Example 147, (2′-(4,5-Dimethyl-1H-imidazol-2-yl)-3,4′-bipyridin-5-yl)(4-methylpiperazin-1-yl)methanone] | ≤ 0.5 | ≤ 0.5
3 | Cc1nc(-c2cc(-c3cncc(C(=O)N4CCOCC4)c3)ccn2)[nH]c1C [Example 148, (2′-(4,5-Dimethyl-1H-imidazol-2-yl)-3,4′-bipyridin-5-yl)(morpholino)methanone] | ≤ 0.5 | ≤ 0.1
4 | Cc1nc(-c2cc(-c3cncc(C(=O)NCCCN(C)C)c3)ccn2)[nH]c1C [Example 149, 2′-(4,5-Dimethyl-1H-imidazol-2-yl)-N-(3-(dimethylamino)propyl)-3,4′-bipyridine-5-carboxamide] | > 0.5 | ≤ 0.1
5 | Cc1nc(-c2cc(-c3cncc(C(=O)NCC4CCOCC4)c3)ccn2)[nH]c1C [Example 162, 2′-(4,5-Dimethyl-1H-imidazol-2-yl)-N-((tetrahydro-2H-pyran-4-yl)methyl)-3,4′-bipyridine-5-carboxamide trifluoroacetate salt] | ≤ 0.5 | ≤ 0.5
6 | Cc1nc(-c2cc(-c3cncc(C(=O)N[C@@H]4CCOC4)c3)ccn2)[nH]c1C [Example 176, 2′-(4,5-Dimethyl-1H-imidazol-2-yl)-N-[(3R)-tetrahydrofuran-3-yl]-3,4′-bipyridine-5-carboxamide trifluoroacetate salt] | ≤ 0.5 | ≤ 0.1
7 | Cc1nc(-c2cc(-c3cncc(C(=O)N4CCC(O)CC4)c3)ccn2)[nH]c1C [Example 177, 1-{[2′-(4,5-Dimethyl-1H-imidazol-2-yl)-3,4′-bipyridin-5-yl]carbonyl}piperidin-4-ol] | ≤ 0.1 | ≤ 0.1
8 | Cc1nc(-c2cc(-c3cncc(C(=O)N[C@@H](C)c4ccccc4)c3)ccn2)[nH]c1C [Example 195, 2′-(4,5-Dimethyl-1H-imidazol-2-yl)-N-[(1S)-1-phenylethyl]-3,4′-bipyridine-5-carboxamide trifluoroacetate salt] | ≤ 0.5 | ≤ 0.5
9 | Cc1nc(-c2cc(-c3cncc(C(=O)N4CCCN(C)CC4)c3)ccn2)[nH]c1C [Example 200, 2′-(4,5-Dimethyl-1H-imidazol-2-yl)-5-[(4-methyl-1,4-diazepan-1-yl)carbonyl]-3,4′-bipyridine] | ≤ 0.5 | ≤ 0.5
10 | Cc1nc(-c2cc(-c3cncc(C(=O)N(C)CCCO)c3)ccn2)[nH]c1C [Example 209, 2′-(4,5-Dimethyl-1H-imidazol-2-yl)-N-(3-hydroxypropyl)-N-methyl-3,4′-bipyridine-5-carboxamide] | ≤ 0.1 | ≤ 0.1
11 | CCCN(C)C(=O)c1cncc(-c2ccnc(-c3nc(C)c(C)[nH]3)c2)c1 [Example 210, 2′-(4,5-Dimethyl-1H-imidazol-2-yl)-N-methyl-N-propyl-3,4′-bipyridine-5-carboxamide] | ≤ 0.5 | ≤ 0.1
12 | CC(=O)N1CC=C(c2ccnc(-c3nc(C)c(C)[nH]3)c2)CC1 [Example 217, 1(4-(2-(4,5-Dimethyl-1H-imidazol-2-yl)pyridin-4-yl)-5,6-dihydropyridin-1(2H)-yl)ethanone trifluoroacetate salt] | > 0.5 | > 0.5
13 | CC(=O)N1CCC=C(c2ccnc(-c3nc(C)c(C)[nH]3)c2)C1 [Example 219, 1-(3-(2-(4,5-Dimethyl-1H-imidazol-2-yl)pyridin-4-yl)-5,6-dihydropyridin-1(2H)-yl)ethanone trifluoroacetate salt] | > 0.5 | > 0.5
14 | Cc1nc(-c2cc(C3=CCCN(S(C)(=O)=O)C3)ccn2)[nH]c1C [Example 220, 2-(4,5-Dimethyl-1H-imidazol-2-yl)-4-(1-(methylsulfonyl)-1,2,5,6-tetrahydropyridin-3-yl)pyridine trifluoroacetate salt] | > 0.5 | ≤ 0.5
15 | Cc1nc(-c2cc(C3=CCCN(C(=O)c4ccccc4)C3)ccn2)[nH]c1C [Example 222, (3-(2-(4,5-Dimethyl-1H-imidazol-2-yl)pyridin-4-yl)-5,6-dihydropyridin-1(2H)-yl)(phenyl)methanone trifluoroacetate salt] | > 0.5 | > 0.5

More lines, now with the values ahead:

Row | IC50 [1] [µM] | IC50 [2] [µM] | SMILES
16 | ≤ 0.1 | ≤ 0.1 | CN1CCC(Nc2cncc(-c3ccnc(-c4ncc(-c5ccccc5)[nH]4)c3)c2)CC1 [Example 143, N-(1-Methylpiperidin-4-yl)-2′-(5-phenyl-1H-imidazol-2-yl)-3,4′-bipyridin-5-amine trifluoroacetate salt]
17 | ≤ 0.1 | ≤ 0.1 | CN1CCC(CNc2cncc(-c3ccnc(-c4ncc(-c5ccccc5)[nH]4)c3)c2)CC1 [Example 144, N-((1-Methylpiperidin-4-yl)methyl)-2′-(5-phenyl-1H-imidazol-2-yl)-3,4′-bipyridin-5-amine trifluoroacetate salt]
18 | ≤ 0.1 | ≤ 0.5 | Cc1nc(-c2cc(-c3cncc(C(=O)N4CCN(C(N)=O)CC4)c3)ccn2)[nH]c1C [Example 150, 4-(2′-(4,5-Dimethyl-1H-imidazol-2-yl)-3,4′-bipyridine-5-carbonyl)piperazine-1-carboxamide]
19 | ≤ 0.05 | ≤ 0.5 | Cc1nc(-c2cc(-c3cncc(C(=O)NCCC4CCOCC4)c3)ccn2)[nH]c1C [Example 164, 2′-(4,5-Dimethyl-1H-imidazol-2-yl)-N-(2-(tetrahydro-2H-pyran-4-yl)ethyl)-3,4′-bipyridine-5-carboxamide trifluoroacetate salt]
20 | ≤ 0.05 | ≤ 0.1 | COCCNC(=O)c1cncc(-c2ccnc(-c3nc(C)c(C)[nH]3)c2)c1 [Example 166, 2′-(4,5-Dimethyl-1H-imidazol-2-yl)-N-(2-methoxyethyl)-3,4′-bipyridine-5-carboxamide trifluoroacetate salt]
21 | ≤ 0.1 | ≤ 0.1 | Cc1nc(-c2cc(-c3cncc(C(=O)N4CC5(CCN(C)C5=O)C4)c3)ccn2)[nH]c1C [Example 171, 2-(2′-(4,5-Dimethyl-1H-imidazol-2-yl)-3,4′-bipyridine-5-carbonyl)-6-methyl-2,6-diazaspiro[3.4]octan-5-one trifluoroacetate salt]
22 | ≤ 0.05 | ≤ 0.1 | Cc1nc(-c2cc(-c3cncc(C(=O)N4CCC(Cc5ccccc5)CC4)c3)ccn2)[nH]c1C [Example 189, 5-[(4-Benzylpiperidin-1-yl)carbonyl]-2′-(4,5-dimethyl-1H-imidazol-2-yl)-3,4′-bipyridine trifluoroacetate salt]
23 | ≤ 0.05 | ≤ 0.5 | Cc1nc(-c2cc(-c3cncc(C(=O)N4CCC(O)(Cc5ccccc5)CC4)c3)ccn2)[nH]c1C [Example 196, 4-Benzyl-1-{[2′-(4,5-dimethyl-1H-imidazol-2-yl)-3,4′-bipyridin-5-yl]carbonyl}piperidin-4-ol trifluoroacetate salt]
24 | ≤ 0.05 | ≤ 0.1 | COCCN(C)C(=O)c1cncc(-c2ccnc(-c3nc(C)c(C)[nH]3)c2)c1 [Example 204, 2′-(4,5-Dimethyl-1H-imidazol-2-yl)-N-(2-methoxyethyl)-N-methyl-3,4′-bipyridine-5-carboxamide trifluoroacetate salt]

Reference: patent US11352340B2, “Pyridine and pyridimine compounds as PI3K-gamma inhibitors” (Incyte Corporation, priority 2016, dated 2022)
